# Source: paper PMC4769319, “Cohesin Releases DNA through Asymmetric ATPase-Driven Ring Opening” (Molecular Cell, 2016)
# Target: T1, Smc1/Smc3 heterodimer with Scc1-C (cohesin) (Saccharomyces cerevisiae, UniProt P32908+P47037, P32908:D1164E, form not given)
# T1 construct: N-terminal tags; Sf9 insect cells; fluorescently labelled for MST; with Sister chromatid cohesion protein 1
# T1 sequence (P32908 1-1225 D1164E): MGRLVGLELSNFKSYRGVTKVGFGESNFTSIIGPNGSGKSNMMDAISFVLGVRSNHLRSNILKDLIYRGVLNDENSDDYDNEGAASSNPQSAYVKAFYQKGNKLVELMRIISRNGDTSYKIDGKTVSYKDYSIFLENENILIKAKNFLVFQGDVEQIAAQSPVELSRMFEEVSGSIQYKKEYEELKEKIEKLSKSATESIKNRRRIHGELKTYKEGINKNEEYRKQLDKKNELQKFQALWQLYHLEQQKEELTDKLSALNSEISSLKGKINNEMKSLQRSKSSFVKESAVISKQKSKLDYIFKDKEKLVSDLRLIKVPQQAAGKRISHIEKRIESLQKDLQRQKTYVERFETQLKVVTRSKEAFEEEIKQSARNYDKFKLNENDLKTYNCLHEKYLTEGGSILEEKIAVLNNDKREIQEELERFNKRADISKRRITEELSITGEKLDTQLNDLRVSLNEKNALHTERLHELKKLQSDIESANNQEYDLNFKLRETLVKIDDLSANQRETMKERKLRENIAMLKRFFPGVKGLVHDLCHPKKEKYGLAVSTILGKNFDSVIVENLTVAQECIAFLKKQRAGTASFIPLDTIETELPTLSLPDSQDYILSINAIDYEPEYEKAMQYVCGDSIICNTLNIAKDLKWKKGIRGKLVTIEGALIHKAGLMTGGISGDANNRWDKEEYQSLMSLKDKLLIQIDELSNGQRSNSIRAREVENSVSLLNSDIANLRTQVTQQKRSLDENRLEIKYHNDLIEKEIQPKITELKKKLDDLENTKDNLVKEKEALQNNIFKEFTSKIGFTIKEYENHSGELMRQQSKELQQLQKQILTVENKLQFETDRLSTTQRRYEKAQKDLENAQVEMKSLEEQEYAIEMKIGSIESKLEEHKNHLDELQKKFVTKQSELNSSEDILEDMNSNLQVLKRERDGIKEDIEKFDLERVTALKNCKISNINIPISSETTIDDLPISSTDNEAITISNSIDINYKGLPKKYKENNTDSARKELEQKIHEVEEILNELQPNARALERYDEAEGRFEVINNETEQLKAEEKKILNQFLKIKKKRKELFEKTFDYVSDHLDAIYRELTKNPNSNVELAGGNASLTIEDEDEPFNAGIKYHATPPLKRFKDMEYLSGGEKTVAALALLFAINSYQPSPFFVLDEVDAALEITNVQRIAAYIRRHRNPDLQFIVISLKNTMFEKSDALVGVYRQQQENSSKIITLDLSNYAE
# T1 sequence (P47037 1-1230): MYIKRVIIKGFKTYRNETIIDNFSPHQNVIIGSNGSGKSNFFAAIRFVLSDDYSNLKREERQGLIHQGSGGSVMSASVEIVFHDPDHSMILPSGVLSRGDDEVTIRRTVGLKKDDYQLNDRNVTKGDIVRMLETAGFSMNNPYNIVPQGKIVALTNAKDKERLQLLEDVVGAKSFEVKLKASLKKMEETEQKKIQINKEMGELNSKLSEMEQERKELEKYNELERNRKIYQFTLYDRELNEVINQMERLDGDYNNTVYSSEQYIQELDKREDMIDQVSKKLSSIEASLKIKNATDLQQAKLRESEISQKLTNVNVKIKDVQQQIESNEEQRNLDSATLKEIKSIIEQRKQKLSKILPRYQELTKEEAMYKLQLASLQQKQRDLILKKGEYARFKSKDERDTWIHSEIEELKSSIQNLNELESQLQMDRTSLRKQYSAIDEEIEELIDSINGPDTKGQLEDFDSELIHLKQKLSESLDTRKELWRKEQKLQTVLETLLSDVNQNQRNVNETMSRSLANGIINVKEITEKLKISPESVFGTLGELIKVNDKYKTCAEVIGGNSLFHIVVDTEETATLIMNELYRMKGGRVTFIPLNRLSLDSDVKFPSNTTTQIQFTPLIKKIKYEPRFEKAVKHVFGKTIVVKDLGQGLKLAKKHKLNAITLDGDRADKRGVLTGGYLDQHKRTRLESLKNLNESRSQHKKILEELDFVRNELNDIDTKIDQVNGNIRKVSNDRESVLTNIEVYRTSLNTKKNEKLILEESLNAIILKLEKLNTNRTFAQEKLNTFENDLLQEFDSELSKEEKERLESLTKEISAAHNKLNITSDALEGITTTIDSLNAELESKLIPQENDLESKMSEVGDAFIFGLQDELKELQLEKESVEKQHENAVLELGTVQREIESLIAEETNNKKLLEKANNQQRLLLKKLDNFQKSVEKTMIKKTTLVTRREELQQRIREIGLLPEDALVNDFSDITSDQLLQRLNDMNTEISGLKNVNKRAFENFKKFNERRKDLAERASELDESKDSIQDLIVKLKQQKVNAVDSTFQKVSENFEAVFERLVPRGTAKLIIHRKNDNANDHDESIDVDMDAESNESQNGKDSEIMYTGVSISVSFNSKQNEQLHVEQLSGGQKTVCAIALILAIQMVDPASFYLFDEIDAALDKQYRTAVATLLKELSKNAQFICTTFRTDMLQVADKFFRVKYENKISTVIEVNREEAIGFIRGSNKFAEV
# T1 sequence (Q12158 1-566 partner): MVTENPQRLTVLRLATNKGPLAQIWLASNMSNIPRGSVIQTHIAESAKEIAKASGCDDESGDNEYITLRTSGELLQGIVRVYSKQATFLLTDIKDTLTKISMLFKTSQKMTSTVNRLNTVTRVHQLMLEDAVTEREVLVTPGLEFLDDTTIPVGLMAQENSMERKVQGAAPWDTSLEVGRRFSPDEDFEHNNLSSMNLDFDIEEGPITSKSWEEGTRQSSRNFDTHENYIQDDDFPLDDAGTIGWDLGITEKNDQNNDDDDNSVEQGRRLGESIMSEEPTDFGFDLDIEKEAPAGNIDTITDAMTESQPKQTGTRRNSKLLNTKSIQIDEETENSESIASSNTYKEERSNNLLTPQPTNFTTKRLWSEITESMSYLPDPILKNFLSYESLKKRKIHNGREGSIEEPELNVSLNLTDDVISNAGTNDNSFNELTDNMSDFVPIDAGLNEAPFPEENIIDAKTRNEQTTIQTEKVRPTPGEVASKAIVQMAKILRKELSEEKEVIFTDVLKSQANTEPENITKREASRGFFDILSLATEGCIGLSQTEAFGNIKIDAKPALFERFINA
# Assay: microscale thermophoresis
# Assay type: binding
# Settings: fluorescently labelled protein; Smc1 co-purified with Scc1-C, plus Smc3; read-out: affinity
# Description: microscale thermophoresis on Smc1/Smc3 heterodimer with Scc1-C (cohesin) | Smc1 L1129V, D1164E and E1158Q mutants all had wild-type-like affinity to both ATP and ADP | wild-type and mutant cohesin complexes appear to have similar affinities to ADP
row,Kd [µM],SMILES
1,> 1000,Nc1ncnc2c1ncn2[C@@H]1O[C@H](COP(=O)(O)OP(=O)(O)O)[C@@H](O)[C@H]1O [ADP]
2,542 ± 188,Nc1ncnc2c1ncn2[C@@H]1O[C@H](COP(=O)(O)OP(=O)(O)OP(=O)(O)O)[C@@H](O)[C@H]1O [ATP]
